Results as given in patent US7989502B2, “Intranasal delivery of modafinil” (SRI International, priority 2009, dated 2011).

What was measured:
rats = assay: Chronic sleep deprivation paradigm, EEG/EMG recordings and roto-rod performance; format: in vivo, rat; details: rats deprived of sleep 6 h on 3 consecutive days
Protocol: In our chronic sleep deprivation paradigm rats are deprived of sleep for 6 h on 3 consecutive days starting at the beginning of the lights on period, when the pressure to sleep is maximal. The sleep deprivation begins with the administration of modafinil and is immediately followed by roto-rod testing. EEG/EMG recordings resumes once the rats are returned to the cage. If needed, the rats are kept awake for the remainder of the deprivation period by gentle handling. At the end of the sleep deprivation, the rats are again subjected to roto-rod testing. The sleep deprivation protocol is executed for 3 consecutive days. On the third day, half of the rats are sacrificed immediately following the sleep deprivation period. A second group of rats are sacrificed after 1-2 h of recovery sleep (RS). […]
In this protocol, the intranasal delivery of modafinil is assayed by two behavioral indicies—EEG/EMG recordings of sleep-wakefulness and performance (wheel running, roto-rod assay). […] The EEG/EMG data is analyzed as detailed above. For the roto-rod testing, the amount of time each rat spends on the wheel is analyzed and compared to control. Qualitative and quantitative analysis sets are generated and descriptive statistical comparisons and two-way ANOVA with post hoc multiple comparisons are used to evaluate changes in behavior/wheel running as a function of the day and drug, assuming equal variances.

healthy male subjects = assay: Intranasal modafinil in chronically sleep deprived humans (simulated military operation, 18 h continuous work); format: in vivo, human; details: 2, 10, 50 and 200 ug groups, VIANASE or OPTINOSE, given 9 h into the work period; versus LME-only and systemically-administered modafinil controls
Protocol: 4. Efficacy of our intranasal drug delivery in chronically sleep deprived humans is also readily confirmed using established methods. Our preferred protocol is based on the results of a series of experiments that tested the treatment efficacy of a hypnotic-stimulant combination to maintain sleep quality, performance, and alertness (Batéjat, et al., Aviat Space Environ Med. 2006 May; 77(5):515-25). Here, healthy male subjects are given zolpidem then allowed to sleep for 6 h prior to being subjected to a simulated military operation of 18 h continuous work. Modafinil (2, 10, 50 and 200 ug dosage treatment groups) is administered using (a) VIANASE electronic atomizer (Bothell, Wash.) or (b) OPTINOSE nasal delivery system (Oslo, Norway) 9 h into the work period. The effects of drugs on sleep-wake behavior (EEG recordings), cortical activation (Critical Flicker Frequency test) and performance levels (reaction time, memory search, attention, dual task, computerized Stroop tests) are monitored.

male Sprague Dawley rats = assay: Intranasal drug delivery snort model, EEG/EMG sleep-wake behavior in rats; format: in vivo, rat
Protocol: Formulation of Intranasal Drugs. Modafinil (Sigma) was solubilized using LME comprised of equal amounts of olive oil and phosphatidyl serine sonicated in succinate buffer, pH 8; modafinil concentrations 0.2 and 2 mg/ml. Control rats received either saline alone or lipid emulsion in succinate buffer, pH 8
Animals and surgery. Anesthetized male Sprague Dawley rats (250-350 g) were implanted with sleep recording electrodes to monitor electroencephalographic (EEG) and electromyographic (EMG) activities. A femoral vein catheter was also implanted and dorsally extended subcutaneously to exit at the posterior end of the EEG/EMG implant. The rats were individually housed in a controlled environment (12 h lights on/off; lights on, 8 am) with access to food and water ad libitum. The animals were allowed to recover for approximately 7-10 days following surgery and habituated to the recording chambers. Baseline behavior was continuously recorded for 48 to 60 h prior to experiment initiation and for at least 24 h post drug administration. Rats were sacrificed by pentobarbital administration (200 mg/kg, i.v.) into the femoral catheter without handling the animal, Greco et al., Neuroscience. 1999; 93(4):1369-74; Vazquez et al., J Cell Biochem. 2008 Dec. 15; 105(6):1472-84.
Intranasal drug delivery—snort model. Three hours into the lights on period, each rat was anesthetized with ˜3% isoflurane in O2 and placed on its back. The head and neck of the rat remained flat and horizontal throughout the entire procedure to prevent any drug from draining down the back of the throat. Reflexes were monitored periodically and anesthetic level was reduced to ˜1.5% isoflurane in O2 for anesthesia maintenance. Each drug was given in 6-7 ul administered with a manual pipette every 2 minutes into alternating nostrils (total volume=50 ul). Two minutes after the last drop was administered, the rat was removed from anesthesia, reconnected to the tethering cable and placed in the recording chamber. The effect of intranasal drug delivery on sleep-wake behavior was monitored for 24 h post-intranasal drug delivery.
Results. Rats awakened within one minute post modafinil administration. Control rats awoke within 3-5 minutes after termination of anesthesia. EEG and EMG activity during wakefulness, slow wave sleep (SWS), and rapid eye movement (REM) sleep were captured digitally, and subsequently scored manually in 10 sec epochs, averaged into one minute bins and represented graphically by hour for approximately 5 to 8 h post drug delivery. Representative individual hypnograms show the wake-promoting effects via intranasal delivery directly to the CNS. Modafinil induced wakefulness in rats at a 100-fold lower dose via our intranasal route than what has been previously published using traditional routes of administration (ie. i.v., oral).
We designed protocols to further optimize concentrations of sleep and wake promoting drugs for intranasal delivery. In exemplary experiments, the drugs are administered to rats in the following concentrations: Modafinil: 0.2 mg/ml (n=3), 0.1 mg/ml (n=3), 0 (LME only, n=3), and the rats instrumented and tested as detailed above.
Sleep Scoring and Statistical Analyses. EEG/EMG recordings are scored using SleepSign™ for Animals (Kissei Comtec, Irvine, Calif.), manually verified for accuracy and stored to disk. Waking is identified by the presence of desynchronized EEG readings and high EMG activity. SWS is identified by high amplitude slow waves together with a low EMG tone relative to waking. REM sleep is identified by the presence of regular theta activity coupled with low EMG relative to SWS. REM sleep is scored only when it follows at least a 15 s episode of SWS. All sleep-wake parameters are analyzed for each hour of the recording periods, then averaged to yield 24 h baseline estimates. A similar analysis is performed prior to and post intranasal drug administration. […]

SMILES: NC(=O)C[S+]([O-])C(c1ccccc1)c1ccccc1 (stereo not drawn) [Modafinil]
- effectiveness of intranasal delivery under chronic stressful conditions (rats): Our results confirm the effectiveness of intranasal delivery of modafinil under chronic stressful conditions
- performance and alertness throughout the 18 h work period (healthy male subjects): maintain elevated performance and alertness over LME-only negative controls and even over systemically-administered modafinil positive-controls
- effective dose, body-weight equivalent (male Sprague Dawley rats; 2.5 ug to a 350 g rat): 7.14 µg/kg
- translated human dose (male Sprague Dawley rats; based on a human weighing 70 kg, from the rat effective dose): 0.5 mg
- effective dose administered (male Sprague Dawley rats; in 50 ul of LME to a 350 g rat, intranasal): 2.5 µg
- fold lower dose inducing wakefulness via intranasal route than published for traditional routes (i.v., oral) (male Sprague Dawley rats; rat, intranasal LME): 100 fold
- time to awakening post modafinil administration (male Sprague Dawley rats; rat, intranasal snort delivery in LME under isoflurane anesthesia, control rats awoke within 3-5 minutes after termination of anesthesia): one
- effective concentration of modafinil in the lipid microemulsion (male Sprague Dawley rats; rat, intranasal, 50 ul of LME): 0.05 mg/mL
- effect of attempting to deliver an intranasal dose comparable to that given orally (male Sprague Dawley rats; rat, under isoflurane anesthesia): the excitatory effects overcame the anesthesia and the animals woke up
